Experiments:
Type in all cases: cell-based
[1] = system: A549 (lung adenocarcinoma); test: Antiproliferative activity (CCK-8 cell viability), A549; conditions: Homo sapiens, 72 h; for inhibition at 3.3 µM: Compound concentration: 3.3 μM; for inhibition at 3.3 µM / inhibition at 10 µM: read-out: Antiproliferative activity in cancerous cells, A549 (inhibition of cell growth); for inhibition at 10 µM: Compound concentration: 10 μM
In short: (§1)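 Cells were seeded at 2,000-5,000/well (HeLa in MEM, HepG2 and SW480 in DMEM, A549 in F-12K, all with 10% FBS) and treated with compound at 3.3, 10 or 30 μM for 72 h at 37° C. CCK-8 was added for 4 h, absorbance was read at 450 nm, and viability was expressed relative to DMSO-treated wells.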

HeLa (cervical cancer) = test: Antiproliferative activity (CCK-8 cell viability), HeLa; conditions: Homo sapiens, 72 h, read-out: Antiproliferative activity in cancerous cells, HELA (inhibition of cell growth); for inhibition at 3.3 µM: Compound concentration: 3.3 μM; for inhibition at 10 µM: Compound concentration: 10 μM
In short: as §1

[2] = system: B16F10 (malignant melanoma); test: Antiproliferative activity (CCK-8 cell viability), B16F10; conditions: Mus musculus, 72 h; for inhibition at 3.3 µM: B16-F10, Compound concentration: 3.3 μM; for inhibition at 3.3 µM / inhibition at 10 µM: read-out: Antiproliferative activity in cancerous cells, B16F10 (inhibition of cell growth); for inhibition at 10 µM: B16-F10, Compound concentration: 10 μM
In short: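 Attached B16F10 cells in 96-well plates were incubated with compound at 37° C for 72 h, followed by 10 μL CCK-8 reagent per well and a further 4 h incubation. A multi-well plate reader measured absorbance at 450 nm. Percent viability across replicates was calculated against DMSO vehicle-treated cells.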

HepG2 (liver cancer) = test: Antiproliferative activity (CCK-8 cell viability), HepG2; conditions: Homo sapiens, 72 h; for inhibition at 3.3 µM: Compound concentration: 3.3 μM; for inhibition at 3.3 µM / inhibition at 10 µM: read-out: Antiproliferative activity in cancerous cells, HepG2 (inhibition of cell growth); for inhibition at 10 µM: Compound concentration: 10 μM; for inhibition at 30 µM: Compound concentration: 30 μM, read-out: Antiproliferative activity in cancerous cells, HepG2
In short: as §1

[3] = system: A431 (epidermoid carcinoma); test: Antiproliferative activity (CCK-8 cell viability), A431; conditions: Homo sapiens, 72 h; for inhibition at 3.3 µM: A-431, Compound concentration: 3.3 μM; for inhibition at 3.3 µM / inhibition at 10 µM: read-out: Antiproliferative activity in cancerous cells, A431 (inhibition of cell growth); for inhibition at 10 µM: A-431, Compound concentration: 10 μM
In short: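 Cell viability of compound-treated A431 cells was measured with a Cell Counting Kit-8. Each well received 10 μL of CCK-8 after 72 h of compound exposure, followed by 4 h incubation at 37° C. and a 450 nm plate-reader measurement. Percent viability was calculated relative to DMSO controls across replicates.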

[4] = system: alpha-smooth muscle actin (α-SMA); test: Inhibition of TGF-β induced expression of alpha-smooth muscle actin (α-SMA) in CFSC cells (western blot); conditions: compound at 10 μM, TGF-β (10 ng/mL), 24 hours, band intensity vs TGF-β only
In short: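 CFSC hepatic stellate cells in serum-free DMEM treated 24 h at 37 °C with compound at 10 μM plus TGF-β (10 ng/mL). α-SMA measured by Western blot with β-actin, ECL detection, densitometry. Percent inhibition is decrease in band intensity versus TGF-β-only cells.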

[5] = system: MDA-MB-231 (breast cancer); test: Antiproliferative activity (CCK-8 cell viability), MDA-MB-231; conditions: Homo sapiens, 72 h, read-out: Antiproliferative activity in cancerous cells, MDA-MB-231 (inhibition of cell growth); for inhibition at 3.3 µM: Compound concentration: 3.3 μM; for inhibition at 10 µM: Compound concentration: 10 μM
In short: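 In this CCK-8 viability assay, MDA-MB-231 cells maintained in Dulbecco's modified Eagle's medium containing 10% fetal bovine serum were placed in 96-well plates (2,000-5,000 cells/well) and treated with compound for 72 h at 37° C. A 4 h incubation with 10 μL CCK-8 followed, plates were read at 450 nm, and viability was expressed against DMSO vehicle wells across replicates.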

SW480 (colon cancer) = test: Antiproliferative activity (CCK-8 cell viability), SW480; conditions: Homo sapiens, 72 h; for inhibition at 3.3 µM: Compound concentration: 3.3 μM; for inhibition at 3.3 µM / inhibition at 10 µM: read-out: Antiproliferative activity in cancerous cells, SW480 (inhibition of cell growth); for inhibition at 10 µM: Compound concentration: 10 μM
In short: as §1

Compound | inhibition at 3.3 µM [1] [%] | inhibition at 10 µM [1] [%] | inhibition at 3.3 µM (HeLa (cervical cancer)) [%] | inhibition at 10 µM (HeLa (cervical cancer)) [%] | inhibition at 3.3 µM [2] [%] | inhibition at 10 µM [2] [%] | inhibition at 3.3 µM (HepG2 (liver cancer)) [%] | inhibition at 10 µM (HepG2 (liver cancer)) [%] | inhibition at 30 µM (HepG2 (liver cancer)) [%] | inhibition at 3.3 µM [3] [%] | inhibition at 10 µM [3] [%] | inhibition at 10 µM [4] [%] | inhibition at 3.3 µM [5] [%] | inhibition at 10 µM [5] [%] | inhibition at 3.3 µM (SW480 (colon cancer)) [%] | inhibition at 10 µM (SW480 (colon cancer)) [%] | inhibition at 30 µM (SW480 (colon cancer); Compound concentration: 30 μM, read-out: Antiproliferative activity in cancerous cells, SW480) [%] | inhibition at 30 µM ([1]; Compound concentration: 30 μM, read-out: Antiproliferative activity in cancerous cells, A549) [%] | inhibition at 30 µM ([2]; B16-F10, Compound concentration: 30 μM, read-out: Antiproliferative activity in cancerous cells, B16F10) [%] | inhibition at 30 µM ([3]; A-431, Compound concentration: 30 μM, read-out: Antiproliferative activity in cancerous cells, A431) [%]
CC1=C(CC(=O)O)c2c(F)cccc2/C1=C\c1cccc(COc2ccccc2)c1 [B13, (Z)-2-(4-Fluoro-2-methyl-1-(3-(phenoxymethyl)benzylidene)-1H-inden-3-yl)-acetic acid] | 30 to 50 | 30 to 50 | 30 to 50 | ≥ 50 | 30 to 50 | ≥ 50 | < 30 | 30 to 50 | 30 to 50 | < 30 | 30 to 50 | < 30 | ≥ 50 | ≥ 50 | < 30 | < 30 | 30 to 50 | – | – | –
CC1=C(CCC(=O)O)c2ccccc2/C1=C\c1cccc(COc2ccccc2)c1 [B15, (Z)-3-(2-Methyl-1-(3-(phenoxymethyl)benzylidene)-1H-inden-3-yl)propanoic acid] | 30 to 50 | ≥ 50 | 30 to 50 | ≥ 50 | ≥ 50 | ≥ 50 | 30 to 50 | ≥ 50 | – | ≥ 50 | ≥ 50 | < 30 | < 30 | ≥ 50 | ≥ 50 | ≥ 50 | – | – | – | –
CC1=C(CC(=O)O)c2cc(F)ccc2/C1=C\c1ccc(CN(Cc2ccccn2)c2ccccc2)cc1 [B16, (Z)-2-(5-Fluoro-2-methyl-1-(4-((phenyl(pyridin-2-ylmethyl)amino)methyl)-benzylidene)-1H-inden-3-yl)acetic acid] | ≥ 50 | ≥ 50 | 30 to 50 | ≥ 50 | 30 to 50 | ≥ 50 | < 30 | ≥ 50 | – | < 30 | ≥ 50 | > 80 | ≥ 50 | ≥ 50 | < 30 | < 30 | – | – | – | –
COc1ccc2c(c1)C(CC(=O)O)=C(C)/C2=C/c1cccc(COc2ccccc2)c1 [B20, (Z)-2-(5-Methoxy-2-methyl-1-(3-(phenoxymethyl)benzylidene)-1H-inden-3-yl)-acetic acid] | < 30 | < 30 | < 30 | 30 to 50 | < 30 | < 30 | < 30 | < 30 | – | < 30 | < 30 | > 80 | 30 to 50 | 30 to 50 | 30 to 50 | 30 to 50 | – | < 30 | < 30 | < 30
CC1=C(CC(=O)O)c2cc(F)ccc2/C1=C\c1cccc(COc2cccc(C(C)(C)C)c2)c1 [B21, (Z)-2-(1-(3-((3-(Tert-butyl)phenoxy)methyl)benzylidene)-5-fluoro-2-methyl-1H-inden-3-yl)acetic acid] | < 30 | ≥ 50 | < 30 | ≥ 50 | < 30 | ≥ 50 | < 30 | 30 to 50 | – | < 30 | 30 to 50 | > 80 | ≥ 50 | ≥ 50 | < 30 | 30 to 50 | – | – | – | –
COc1ccc2c(c1)/C(=C\c1cccc(COc3ccc(F)cc3)c1)C(C)=C2CC(=O)O [B22, (Z)-2-(1-(3-((4-Fluorophenoxy)methyl)benzylidene)-6-methoxy-2-methyl-1H-inden-3-yl)acetic acid] | < 30 | < 30 | < 30 | 30 to 50 | < 30 | < 30 | < 30 | < 30 | – | < 30 | < 30 | > 80 | 30 to 50 | 30 to 50 | < 30 | < 30 | – | – | – | –
COc1ccc2c(c1)C(CC(=O)O)=C(C)/C2=C/c1cccc(COc2ccc(F)cc2)c1 [B24, (Z)-2-(1-(3-((4-Fluorophenoxy)methyl)benzylidene)-5-methoxy-2-methyl-1H-inden-3-yl)acetic acid] | 30 to 50 | ≥ 50 | < 30 | < 30 | < 30 | ≥ 50 | < 30 | < 30 | 30 to 50 | < 30 | < 30 | > 80 | 30 to 50 | ≥ 50 | < 30 | < 30 | – | – | – | –
CC1=C(CC(=O)O)c2cc(F)ccc2/C1=C\c1ccccc1OCc1ccccc1 [B28, (Z)-2-(1-(2-(Benzyloxy)benzylidene)-5-fluoro-2-methyl-1H-inden-3-yl)acetic acid] | 30 to 50 | ≥ 50 | ≥ 50 | ≥ 50 | < 30 | 30 to 50 | ≥ 50 | ≥ 50 | – | ≥ 50 | ≥ 50 | > 80 | 30 to 50 | ≥ 50 | 30 to 50 | ≥ 50 | – | – | – | –
COc1ccc(/C=C2/C(C)=C(CC(=O)O)c3cc(F)ccc32)c(OCc2ccccc2)c1 [B29, (Z)-2-(1-(2-(Benzyloxy)-4-methoxybenzylidene)-5-fluoro-2-methyl-1H-inden-3-yl)acetic acid] | < 30 | < 30 | < 30 | ≥ 50 | < 30 | ≥ 50 | < 30 | ≥ 50 | – | < 30 | ≥ 50 | > 80 | 30 to 50 | 30 to 50 | < 30 | < 30 | – | – | – | –

Reference: patent US20260184663A1, “INDENE COMPOUNDS, PHARMACEUTICAL COMPOSITIONS THEREOF, AND THEIR THERAPEUTIC APPLICATIONS” (NucMito Pharmaceuticals co. Ltd., priority 2022, published 2026)
